Measured values reported in US11292807B2 (OCEANS LTD., priority 2015, dated 2022).
Where two headings read alike, the source gives them in different places.

Test system: SKOV3 (ovarian adenocarcinoma)
Conditions: human, 72 h
Description: Stock solutions of the extracts were prepared in dimethylsulfoxide (DMSO) at 10 mg/mL and stored in 200 μl aliquots at −20° C. until analysis. This preparation ensured that the DMSO delivered to cells in culture never exceeded 1%.
Prepared extracts were assessed following chronic exposure conditions in which cells were seeded at 2×10^3 cells/well (96 well-plate) and incubated with test compounds for 72 h. Each compound was evaluated over a range of concentrations (0, 10, 25, 50 or 100 μg/ml). Cell proliferation was initially assessed using a standard colorimetric indicator of metabolic activity (CIMA) assay. In this assay, tetrazole reduction was evaluated as a measure of metabolic function that evaluates mitochondrial activity to determine the extent of cell proliferation within a culture. This assay is based on the reduction of yellow tetrazolium salt to purple formazan by mitochondrial reductases enzyme in viable cells, resulting in a color changed that confers a change in absorbance.

For CC/C=C\C/C=C\C/C=C\C/C=C\C/C=C\CCCC(=O)OCC(COC1OC(CO)C(O)C(O)C1O)OC(=O)CCCCCCCCCCCCCCC (centres unmarked) [Compound 2, MGDG C20:5/C16:0], the Average cell viability (10 ug/mL) was 94% and the Average cell viability (50 ug/mL) was 62%.
